Our source for the inhibition values is patent US8173689B2 (Novartis AG, priority 2006, dated 2012).

Structures are written as SMILES. Read-outs that look alike come from different tables or passages of the source.

Test [1] has as its target T1, cytoplasmic domain of the human CSF-1R (Homo sapiens, UniProt P07333).
T1 construct: Recombinant protein corresponding to the cytoplasmic domain of the human CSF-1R; purchased Invitrogen Corporation, Carlsbad, Calif; PV3249
T1 sequence (P07333 539-972 limits assumed): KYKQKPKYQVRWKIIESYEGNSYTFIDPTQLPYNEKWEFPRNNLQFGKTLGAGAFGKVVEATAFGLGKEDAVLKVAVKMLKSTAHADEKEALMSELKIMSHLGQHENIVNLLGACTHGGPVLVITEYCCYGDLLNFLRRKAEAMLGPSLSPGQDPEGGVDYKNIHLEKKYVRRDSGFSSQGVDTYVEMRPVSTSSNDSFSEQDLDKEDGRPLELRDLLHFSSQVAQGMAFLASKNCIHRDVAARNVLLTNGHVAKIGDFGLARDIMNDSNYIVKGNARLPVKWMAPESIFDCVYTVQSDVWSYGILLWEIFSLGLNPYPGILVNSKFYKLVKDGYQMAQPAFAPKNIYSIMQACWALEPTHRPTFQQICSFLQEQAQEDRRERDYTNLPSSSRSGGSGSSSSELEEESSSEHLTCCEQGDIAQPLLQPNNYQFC
Briefly: In vitro kinase assay for colony stimulating factor-1 receptor (AlphaScreen). The class given is biochemical. The following applies: tested at about 1 μM, read-out: CSF-1R percent inhibition. In outline:
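4 nM enzyme, 1 μM ATP; buffer 50 mM Hepes pH 7.5, 5 mM MgCl2, 10 mM MnCl2, 1.0 mM DTT, 0.1% BSA, 0.01% Tween 80. Readout: AlphaScreen, PT66 acceptor/streptavidin donor, overnight.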

Test [2] deals with T2, full-length human CSF-1R receptor (Homo sapiens, UniProt P07333).
T2 construct: transfected with the full-length human CSF-1R receptor cloned in house; expressed in transfected cells; host or cells: HEK293H (Invitrogen Cat. #11631017)
As to the kind of experiment: In vitro inhibition of CSF-1R receptor tyrosine phosphorylation in transfected HEK293H cells stimulated with MCSF. The class given is cell-based. The following applies: HEK293-H, tested at about 1 μM, read-out: pCSF1R percent inhibition. The protocol:
The lysate was then transferred to total CSF-1R antibody coated 96-well plates that had already been blocked with 3% Blocker A from Mesoscale discovery (MSD) for 2 hours and washed afterwards. Lysates were incubated overnight at 4° C. and the plates were then washed 4× with MSD Tris Wash Buffer. […] The plates were read on the Sector 6000 instrument (MSD). Raw data was imported in Abase and EC50s calculated with XL-fit data analysis software.

The next test concerns the target T3, kinase domain of cKIT (Homo sapiens, UniProt P10721).
T3 construct: The kinase domain of cKIT was assayed in 50 mM Hepes; purchased Upstate 14-559
As to the kind of experiment: Inhibition of cKIT kinase signaling in an in vitro biochemical assay (alphascreen). The following applies: tested at about 1 μM, read-out: cKit percent inhibition.

The target of the next test is T4, kinase domain of PDGFRβ (Homo sapiens, UniProt P09619).
T4 construct: The kinase domain of PDGFRβ was assayed in 50 mM Hepes; purchased Invitrogen P3082
Briefly: Inhibition of PDGFRb kinase signaling in an in vitro biochemical assay (alphascreen). The following applies: tested at about 1 μM, read-out: PDGFRβ percent inhibition. For orientation: In Alpha technology, singlet oxygen from a donor bead excites a nearby acceptor bead.

Test [3] has as its system MNFS60 (murine AML cells). Briefly: Cell viability assay in MCSF dependent MNFS60 cells (Cell Titer Glo). The class given is cell-based. The following applies: Mus musculus, tested at about 1 μM, read-out: M-NFS-60 CP percent inhibition. In outline:
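EC50 values reflect MCSF-driven (10 ng/ml final) proliferation over 72 hrs at 37° C., read by CellTiter-Glo. Each condition was run in triplicate.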

T4 sequence (P09619 600-962 limits assumed): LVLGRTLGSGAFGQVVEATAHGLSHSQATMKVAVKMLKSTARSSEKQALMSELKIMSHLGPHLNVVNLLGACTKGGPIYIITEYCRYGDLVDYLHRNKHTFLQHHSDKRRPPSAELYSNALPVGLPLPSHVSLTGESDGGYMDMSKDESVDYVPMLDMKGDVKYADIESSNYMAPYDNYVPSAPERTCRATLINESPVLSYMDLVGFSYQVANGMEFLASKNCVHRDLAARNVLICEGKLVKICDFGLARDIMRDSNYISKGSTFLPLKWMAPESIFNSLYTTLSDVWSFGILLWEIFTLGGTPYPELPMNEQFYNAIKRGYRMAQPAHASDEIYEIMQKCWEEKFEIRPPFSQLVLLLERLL
T3 sequence (P10721 589-937 limits assumed): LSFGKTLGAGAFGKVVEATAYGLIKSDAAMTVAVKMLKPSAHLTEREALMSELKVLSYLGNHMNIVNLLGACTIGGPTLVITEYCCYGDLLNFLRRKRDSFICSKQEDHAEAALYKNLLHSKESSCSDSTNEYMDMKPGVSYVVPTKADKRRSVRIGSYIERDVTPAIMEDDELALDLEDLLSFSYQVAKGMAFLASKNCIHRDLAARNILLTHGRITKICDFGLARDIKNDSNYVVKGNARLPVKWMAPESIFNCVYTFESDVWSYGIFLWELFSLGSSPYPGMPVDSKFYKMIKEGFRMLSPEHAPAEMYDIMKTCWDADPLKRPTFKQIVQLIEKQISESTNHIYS
T2 sequence (P07333 20-972): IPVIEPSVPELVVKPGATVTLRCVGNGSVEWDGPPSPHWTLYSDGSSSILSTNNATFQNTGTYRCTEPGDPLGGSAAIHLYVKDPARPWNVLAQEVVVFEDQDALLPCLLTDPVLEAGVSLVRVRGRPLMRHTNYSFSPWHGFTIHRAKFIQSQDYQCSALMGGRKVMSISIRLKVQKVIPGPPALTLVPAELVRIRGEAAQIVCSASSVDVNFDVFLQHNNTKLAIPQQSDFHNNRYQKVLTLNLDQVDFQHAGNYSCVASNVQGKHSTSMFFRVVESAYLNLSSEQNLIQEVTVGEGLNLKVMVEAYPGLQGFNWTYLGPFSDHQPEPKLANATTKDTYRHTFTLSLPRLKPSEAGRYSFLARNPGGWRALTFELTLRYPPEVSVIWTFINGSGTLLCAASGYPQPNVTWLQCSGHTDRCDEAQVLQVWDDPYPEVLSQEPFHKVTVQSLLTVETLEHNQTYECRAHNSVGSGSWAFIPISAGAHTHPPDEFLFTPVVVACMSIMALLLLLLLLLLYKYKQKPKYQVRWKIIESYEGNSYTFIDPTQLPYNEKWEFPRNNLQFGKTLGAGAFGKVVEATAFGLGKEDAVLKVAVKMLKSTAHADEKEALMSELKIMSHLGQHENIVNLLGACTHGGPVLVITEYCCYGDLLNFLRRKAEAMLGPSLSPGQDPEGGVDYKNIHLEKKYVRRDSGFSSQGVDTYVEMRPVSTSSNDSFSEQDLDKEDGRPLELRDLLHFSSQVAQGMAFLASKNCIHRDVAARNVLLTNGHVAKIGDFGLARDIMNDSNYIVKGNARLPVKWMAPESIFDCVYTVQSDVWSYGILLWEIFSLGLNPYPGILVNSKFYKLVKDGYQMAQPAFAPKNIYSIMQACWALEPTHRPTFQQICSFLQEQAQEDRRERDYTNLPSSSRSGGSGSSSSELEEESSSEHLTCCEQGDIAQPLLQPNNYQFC

The inhibition is the share of the control response that was lost under treatment. In the case of `Cn1cc(-c2cc(Oc3ccc4nc(N[C@@H]5c6ccccc6C[C@@H]5O)sc4c3)ccn2)cn1` [Example 348, (1R,2S)-1-(6-(2-(1-methyl-1H-pyrazol-4-yl)pyridin-4-yloxy)benzo[d]thiazol-2-ylamino)-2,3-dihydro-1H-inden-2-ol], the inhibition at 1 µM came out at 100% in test [1]; 90% in test [2] (HEK293H cells); 47% at kinase domain of cKIT; 55% on kinase domain of PDGFRβ; 100% in test [3] (MCSF dependent MNFS60 cells).
Turning to `CNC(=O)c1cc(Oc2ccc3nc(NCCc4ccccc4OC)sc3c2)ccn1` [Example 317, 4-(2-(2-methoxyphenylethylamino)benzo[d]thiazol-6-yloxy)-N-methylpicolinamide], the inhibition at 1 µM in test [1] was determined as 100%; in test [2] (HEK293H cells) it was 95%; at kinase domain of cKIT, 70%; at kinase domain of PDGFRβ, 12%; in test [3] (MCSF dependent MNFS60 cells), 50%.
For `CNC(=O)c1cc(Oc2ccc3nc(NCc4ccc5c(c4)CCO5)oc3c2)ccn1` [Compound 124, 4-{2-[(2,3-Dihydro-benzofuran-5-ylmethyl)-amino]-benzooxazol-6-yloxy}-pyridine-2-carboxylic acid methylamide], the inhibition at 1 µM in test [1] came to 99%; in test [2] (HEK293H cells), 94%; at kinase domain of cKIT, 32%; at kinase domain of PDGFRβ it was 0%; in test [3] (MNFS60 cells) it was 51%.
With `CC(C)CCNc1nc2ccc(Oc3ccnc(-c4cnn(C)c4)c3)cc2s1` [Example 365, N-isopentyl-6-(2-(1-methyl-1H-pyrazol-4-yl)pyridin-4-yloxy)benzo[d]thiazol-2-amine], the inhibition at 1 µM in test [1] turned out to be 100%; in test [2] (HEK293H cells) it was 97%; at kinase domain of cKIT it was 100%; at kinase domain of PDGFRβ, 79%; in test [3] (MCSF dependent MNFS60 cells), 100%.
Regarding `C[C@H](Nc1nc2ccc(Oc3ccnc4ccccc34)cc2s1)C1CCCCC1` [Example 241, (S)-N-(1-cyclohexylethyl)-6-(quinolin-4-yloxy)benzo[d]thiazol-2-amine], the inhibition at 1 µM in test [1] (compounds of Table 3) came to 100%; in test [2] (compounds of Table 3), 65%; at kinase domain of cKIT (compounds of Table 3), 25%; on kinase domain of PDGFRβ (compounds of Table 3) it was 23%; in test [3] (compounds of Table 3) it was 51%.
The matching figures for `C[C@H](Nc1nc2ccc(Oc3ccnc(-c4cccnc4)c3)cc2s1)C1CCCCC1` [Example 274, (S)-6-(2,3'-bipyridin-4-yloxy)-N-(1-cyclohexylethyl)benzo[d] thiazol-2-amine]: 100%, 82%, 28%, 12% and 76%.
Consider `CNC(=O)c1cc(Oc2ccc3nc(NCc4c(OC)cccc4OC)oc3c2)ccn1` [Compound 84, 4-[2-(2,6-Dimethoxy-benzyl-amino)-benzooxazol-6-yloxy]-pyridine-2-carboxylic acid methylamide], for which the inhibition at 1 µM in test [1] came to 99%; in test [2] (HEK293H cells), 44%; on kinase domain of cKIT it was 12%; at kinase domain of PDGFRβ, 0%; in test [3] (MNFS60 cells) it was 32%.
As to `C[C@H](Nc1nc2ccc(Oc3ccnc(-c4nc5c([nH]4)CCCC5)c3)cc2s1)C1CCCCC1` [Example 271, (S)-N-(1-cyclohexylethyl)-6-(2-(4,5,6,7-tetrahydro-1H-benzo[d]imidazol-2-yl)pyridin-4-yloxy)benzo[d]thiazol-2-amine], the inhibition at 1 µM was found to be 98% in test [1] (compounds of Table 3); 55% in test [2] (compounds of Table 3); 46% at kinase domain of cKIT (compounds of Table 3); 24% at kinase domain of PDGFRβ (compounds of Table 3); 54% in test [3] (compounds of Table 3).
`Cn1cc(-c2cc(Oc3ccc4nc(NCC5CCCCC5)sc4c3)ccn2)cn1` [Example 340, N-(cyclohexylmethyl)-6-(2-(1-methyl-1H-pyrazol-4-yl)pyridin-4-yloxy)benzo[d]thiazol-2-amine]: the inhibition at 1 µM in test [1] worked out at 100%; in test [2] (HEK293H cells) it was 96%; on kinase domain of cKIT, 100%; on kinase domain of PDGFRβ, 98%; in test [3] (MCSF dependent MNFS60 cells), 100%.
For `O[C@@H]1CCCC[C@H]1Nc1nc2ccc(Oc3ccnc4cc(OC(F)(F)F)ccc34)cc2s1` [Example 230, (1R,2R)-2-(6-(7-(trifluoromethoxy)quinolin-4-yloxy)benzo[d]thiazol-2-ylamino)cyclohexanol], the inhibition at 1 µM in test [1] (compounds of Table 3) was found to be 100%; in test [2] (compounds of Table 3) it was 65%; on kinase domain of cKIT (compounds of Table 3), 6%; on kinase domain of PDGFRβ (compounds of Table 3) it was 14%; in test [3] (compounds of Table 3), 58%.
As for `CNC(=O)c1cc(Oc2ccc3nc(NCc4ccccc4-n4cccn4)sc3c2)ccn1` [Compound 143, 4-[2-(2-Pyrazol-1-yl-benzyl-amino)-benzothiazol-6-yloxy]-pyridine-2-carboxylic acid methylamide], the inhibition at 1 µM in test [1] came out at 99%; in test [2] (HEK293H cells) it was 91%; at kinase domain of cKIT, 33%; at kinase domain of PDGFRβ, 4%; in test [3] (MNFS60 cells), 97%.
Regarding `CNC(=O)c1cc(Oc2ccc3nc(N[C@H]4CCCN(C(=O)C(C)C)C4)sc3c2)ccn1` [Example 334, (S)-4-(2-(1-isobutyrylpiperidin-3-ylamino)benzo[d]thiazol-6-yloxy)-N-methylpicolinamide], the inhibition at 1 µM in test [1] came out at 100%; in test [2] (HEK293H cells), 71%; on kinase domain of cKIT, 20%; at kinase domain of PDGFRβ, 15%; in test [3] (MCSF dependent MNFS60 cells) it was 67%.
The like results for `CNC(=O)c1cc(Oc2ccc3nc(NCCc4ccccc4Cl)sc3c2)ccn1` [Example 319, 4-(2-(2-chlorophenylethylamino)benzo[d]thiazol-6-yloxy)-N-methylpicolinamide] were, in that order, 100%, 91%, 93%, 24% and 61%.
The like results for `CC(C)CONC(=O)c1cc(Oc2ccc3nc(NCC4CCCCC4)sc3c2)ccn1` [Example 380, 4-(2-(cyclohexylmethylamino)benzo[d]thiazol-6-yloxy)-N-isobutoxypicolinamide] were, in that order, 100%, 94%, 53%, 49% and 79%.
The like results for `CNC(=O)c1cc(Oc2ccc3nc(N[C@H]4C[C@H]4c4ccccc4)sc3c2)ccn1` [Example 318, N-methyl-4-(2-((1S,2S)-2-phenylcyclopropylamino)benzo[d]thiazol-6-yloxy)picolinamide] were, in that order, 100%, 78%, 47%, 13% and 24%.
Take `CNC(=O)c1cc(Oc2ccc3nc(NCc4ccccc4N4CCOCC4)sc3c2)ccn1` [Compound 142, 4-[2-(2-Morpholin-4-yl-benzylamino)-benzothiazol-6-yloxy]-2-pyridine-2-carboxylic acid methylamide]: the inhibition at 1 µM in test [1] is 99%; in test [2] (HEK293H cells), 88%; at kinase domain of cKIT, 98%; at kinase domain of PDGFRβ, 97%; in test [3] (MNFS60 cells) it was 100%.
